# How the values were obtained:
# [1] = target: T1, human metabotropic glutamate receptor 2 (mGluR2) (Homo sapiens, UniProt Q14416); assay: Binding Assay (mGluR2 GTPγ35S assay); assay type: biochemical; settings: membranes from CHO-K1 cells expressing human mGluR2; L-glutamate and GTPγ35S stimulation, 45 minutes, SPA
# T1 construct: expressed in transfected cells; host or cells: CHO-K1
# Description: This assay was developed to measure the agonist and/or positive allosteric modulator (PAM) activity of compounds at the human metabotropic glutamate receptor 2 (mGluR2).
# Crude membranes were prepared from CHO-K1 cells expressing human mGluR2 and stored at −80° C. in aliquots in 2 mg/mL concentrations using a previously described method Fenge et al., Cytotechnology 38 (2002). Assay buffer is defined as 0.22 μM filtered water containing 50 mM HEPES (Teknova), 10 mM MgCl2 (Teknova), 50 mM NaCl (Teknova), 100 μM DTT (Sigma 43819), pH 7.4. Membrane solution containing membranes, beads, and GDP diluted in assay buffer was prepared in excess and incubated for 15 to 30 minutes at room temperature (25° C.). Membrane solution was prepared in a per-well ratio of 1.8 μg membranes, 225 μg PVT-WGA SPA beads (Perkin Elmer RPNQ0001), 3.3 μM GDP (Sigma G7127) in assay buffer to a final per-well volume of 180 μl. Stimulation buffer was prepared by diluting L-glutamate to 10 μM and GTPγ^35S to 1 nM in assay buffer. […] 20 μL of stimulation buffer was then added to individual wells, plates were sealed, incubated on a shaker at room temperature for 45 minutes, centrifuged at 1000 RPM for 5 minutes and then assessed using a ^35S SPA Program (1 minute read time. Low Background Paralux) on a MicroBeta instrument (PerkinElmer, Waltham, Massachusetts).
# [2] = Pharmacokinetics after intravenous bolus in rats; assay type: in vivo; settings: male Wistar rat, nominal dose 1.0 mg/kg, plasma
# Description: The animals were single dosed via intravenous (IV) bolus to tail vein over approximately 5 seconds. The animals were not fasted prior to dosing. The single dose formulation samples were collected from middle of formulation and stored at 5±3° C. for potential analysis. Animals were evaluated during in-life phase.
# The blood samples were centrifuged at 2000 g for 5 minutes at 4° C. to obtain plasma. Plasma samples were stored in polypropylene tubes, quickly frozen in ice box and kept at −80° C. Plasma samples were deprotainated by solvent precipitation. Concentration of Compounds A and D in plasma and tissue samples were analyzed using a LC-MS/MS method. WinNonlin version 6.2 will be used for pharmacokinetic parameters calculations. AUC was calculated using log trapezoidal method.
# [3] = Compound turnover and metabolite formation in human hepatocytes with or without CYP3A inhibitor ketoconazole; assay type: in vitro ADME
# Description: Approximately 10% of Compound A disappeared in 60 minutes.
# Since Compound D was predominantly metabolized by CYP3A4, further experiments were conducted with Compound A in human hepatocytes in the presence and absence of CYP3A inhibitor ketoconazole. […] Parent disappearance data indicated a CYP3A involvement in the metabolism of Compound A (FIG. 1); however, the very low intrinsic clearance values make it difficult to provide an accurate determination of a percentage involvement of CYP3A via a substrate depletion method as described above.
# Within the same experiments, the formation of Compound A metabolites in the absence of ketoconazole was observed (FIG. 2).
# [4] = test system: recombinant CYP enzymes (CYP1A2, 2A6, 2B6, 2C8, 2C9, 2C19, 2D6, 2E1, 3A4 and 3A5); assay: Turnover in recombinant CYP enzymes; assay type: in vitro ADME; settings: 0.1 μM and 1 μM
# Description: To identify the enzymes responsible for P450 mediated metabolism, the turnover of Compound A was tested in recombinant CYP enzymes (CYP1A2, 2A6, 2B6, 2C8, 2C9, 2C19, 2D6, 2E1, 3A4 and 3A5) at 0.1 μM and 1 μM.
# [5] = Metabolite identification and relative abundance in human hepatocytes; assay type: in vitro ADME; settings: Compound A 10 μM in human hepatocytes (1 million cells/mL), 4 hours, 37° C.
# Description: Compound A was incubated at 10 μM in human hepatocytes (1 million cells/mL) for 4 hours at 37° C. under air with 5% CO2. The reaction was stopped by adding acetonitrile at a ratio of 3:1. Following centrifugation the supernatant was transferred to a clean tube and dried under a stream of N2. Following reconstitution in 30% acetonitrile, aliquots of the sample were injected onto a LC/UV/MS system for metabolite identification and profiling. This allowed assessment of the metabolites formed and an indication of their relative abundance (via UV, Table 6).
# [6] = as disclosed in WO 2009/148403; cited from earlier work
# hERG ion channel = hERG ion channel (Homo sapiens, UniProt Q12809); settings: as disclosed in WO 2009/148403; cited from earlier work
# Sequence of hERG ion channel (Q12809 whole entry): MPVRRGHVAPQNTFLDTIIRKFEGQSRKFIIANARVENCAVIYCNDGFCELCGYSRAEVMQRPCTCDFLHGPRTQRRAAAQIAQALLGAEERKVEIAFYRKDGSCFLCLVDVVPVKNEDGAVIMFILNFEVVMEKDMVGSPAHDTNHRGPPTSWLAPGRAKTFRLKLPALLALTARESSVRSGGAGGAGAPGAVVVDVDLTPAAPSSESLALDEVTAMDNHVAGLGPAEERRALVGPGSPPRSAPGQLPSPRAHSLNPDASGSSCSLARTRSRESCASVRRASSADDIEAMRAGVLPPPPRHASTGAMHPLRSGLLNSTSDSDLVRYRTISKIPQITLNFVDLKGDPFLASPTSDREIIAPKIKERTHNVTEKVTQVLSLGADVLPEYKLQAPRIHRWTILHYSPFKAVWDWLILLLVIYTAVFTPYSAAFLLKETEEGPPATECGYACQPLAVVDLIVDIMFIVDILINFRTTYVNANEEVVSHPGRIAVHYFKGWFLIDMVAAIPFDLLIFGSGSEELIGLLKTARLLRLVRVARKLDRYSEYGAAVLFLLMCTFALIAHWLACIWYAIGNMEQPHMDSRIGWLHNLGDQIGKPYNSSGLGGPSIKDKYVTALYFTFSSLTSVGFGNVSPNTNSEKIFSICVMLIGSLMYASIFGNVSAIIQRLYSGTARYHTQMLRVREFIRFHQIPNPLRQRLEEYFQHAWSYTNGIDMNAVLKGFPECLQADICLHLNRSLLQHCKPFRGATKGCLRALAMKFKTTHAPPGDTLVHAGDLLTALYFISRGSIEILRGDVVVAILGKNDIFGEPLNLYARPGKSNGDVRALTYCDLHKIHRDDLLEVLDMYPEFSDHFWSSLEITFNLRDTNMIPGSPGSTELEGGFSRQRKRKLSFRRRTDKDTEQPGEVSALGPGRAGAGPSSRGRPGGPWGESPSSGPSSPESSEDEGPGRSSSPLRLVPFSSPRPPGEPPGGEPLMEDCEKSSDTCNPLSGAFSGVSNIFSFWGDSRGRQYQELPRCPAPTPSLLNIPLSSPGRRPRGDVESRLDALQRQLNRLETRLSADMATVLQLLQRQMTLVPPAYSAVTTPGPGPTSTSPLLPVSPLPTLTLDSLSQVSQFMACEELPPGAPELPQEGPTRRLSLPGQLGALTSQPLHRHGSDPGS
# mGluR2 = mGluR2 (Homo sapiens, UniProt Q14416); settings: as disclosed in WO 2009/148403; cited from earlier work
# Sequence of mGluR2 (Q14416 19-872): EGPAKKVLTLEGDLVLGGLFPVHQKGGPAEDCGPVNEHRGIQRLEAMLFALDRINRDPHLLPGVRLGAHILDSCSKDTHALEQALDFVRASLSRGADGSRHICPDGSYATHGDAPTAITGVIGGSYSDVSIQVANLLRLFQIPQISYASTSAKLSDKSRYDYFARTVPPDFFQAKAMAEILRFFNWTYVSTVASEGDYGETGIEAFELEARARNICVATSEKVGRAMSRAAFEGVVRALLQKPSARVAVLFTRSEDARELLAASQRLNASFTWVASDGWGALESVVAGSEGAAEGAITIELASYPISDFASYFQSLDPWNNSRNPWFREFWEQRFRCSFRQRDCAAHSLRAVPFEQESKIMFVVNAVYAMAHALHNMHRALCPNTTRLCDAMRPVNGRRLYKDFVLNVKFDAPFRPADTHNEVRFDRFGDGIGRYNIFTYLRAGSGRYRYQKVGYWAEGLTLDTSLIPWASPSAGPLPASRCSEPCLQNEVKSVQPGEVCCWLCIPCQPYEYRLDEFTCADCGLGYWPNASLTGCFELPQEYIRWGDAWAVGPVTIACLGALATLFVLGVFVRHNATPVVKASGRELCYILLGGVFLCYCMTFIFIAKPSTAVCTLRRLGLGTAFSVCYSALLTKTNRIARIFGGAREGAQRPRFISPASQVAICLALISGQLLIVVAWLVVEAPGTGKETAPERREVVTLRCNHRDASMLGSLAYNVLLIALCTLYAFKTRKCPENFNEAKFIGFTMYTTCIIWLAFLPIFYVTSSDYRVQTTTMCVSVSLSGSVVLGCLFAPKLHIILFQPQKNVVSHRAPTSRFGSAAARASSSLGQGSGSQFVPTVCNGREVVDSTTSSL
# T1 sequence (Q14416 19-872): as above
Compound,EC50 [1],AUC [2],clearance [2],half-life [2],Turnover in human hepatocytes [3],"Parent compound disappeared ([3]; 60 minutes, absence of ketoconazole)",Turnover in presence of CYP3A inhibitor ([3]; with ketoconazole),Turnover in recombinant CYP enzymes [4],Relative UV abundance (%) Human [5],Solubility [6],Capacity to activate the hERG ion channel (hERG ion channel),mGluR2 modulator activity (mGluR2)
"[2H]C1([2H])OC([2H])([2H])C([2H])([2H])N(C(=O)c2cc(-c3cc(Cl)c4c(c3)CN([C@@H](C)C3CC3)C4=O)on2)C1([2H])[2H] [Compound A, (S)-7-chloro-2-(1-cyclopropylethyl)-5-(3-(morpholine-4-carbonyl-2,2,3,3,5,5,6,6-d8)isoxazol-5-yl)isoindolin-1-one]",170 ± 9 nM,1.29 µM·h,31.1 mL/min/kg,45.7 min,very low turnover,Approximately 10%,No turnover was observed,No significant turnover was observed,94.2%,–,–,–
"C[C@@H](C1CC1)N1Cc2cc(-c3cc(C(=O)N4CCOCC4)no3)cc(Cl)c2C1=O [Compound D, (S)-7-chloro-2-(1-cyclopropylethyl)-5-(3-(morpholine-4-carbonyl)isoxazol-5-yl)isoindolin-1-one, reference compound]",121 ± 56 nM,0.915 µM·h,44.3 mL/min/kg,48.8 min,–,–,–,predominantly metabolised by CYP3A4,–,favorable solubility,low capacity to activate the hERG ion channel,highly active

# Source: patent US20170145002A1, “DEUTERATED ISOXAZOLE DERIVATIVES AND THEIR USE AS METABOTROPIC GLUTAMATE RECEPTOR POTENTIATORS” (AstraZeneca AB, priority 2015, published 2017)
